Experimental data reported in patent US20130295551A1, “MICROFLUIDIC DEVICE AND METHOD FOR MODULATING A GAS ENVIRONMENT OF CELL CULTURES AND TISSUES” (THE BOARD OF TRUSTEES OF THE UNIVERSITY OF ILLINOIS, priority 2012, published 2013).

Experiments:
Type in all cases: cell-based, C57BL/6 mice
[1] = test system: islets; experiment: Islet glucose-stimulated calcium response (FURA ratio) under hypoxia in microfluidic device
Procedure: To quantify their response to hypoxia, FURA-incubated islets were loaded into the multimodal device and exposed to 21%, 10%, and 5% oxygen while monitoring their calcium responses. In the GSIR mechanism, the calcium response correlates with insulin secretion, thus a stimulatory glucose pulse will result in a pulse in intracellular calcium. Under 21% oxygen flow, normoxic for ex vivo islets, the calcium responded with standard bi-phasic profile with magnitudes 1.3 times above their baseline, as shown in FIG. 8A. Note that subsequent hypoxic conditions were normalized against this normoxic pulse. When the islets were exposed to 5% hypoxia for 30 minutes (under zero flow), their calcium response lost both pulse magnitude as well as phase information. […] Quantitatively, the pulse height was depressed below 50% of the normoxic pulse, for both 10% and 5% hypoxia.
Islets were incubated in 100 μM diazoxide for 10 minutes and washed in Krebs buffer for 10 minutes prior to hypoxia and glucose stimulation. […] Both mitochondrial hyperpolarization and insulin secretion were improved with diazoxide compared to IH+5HD, as shown in FIG. 10B.
C57BL/6 mice were sacrificed as islet donors for the murine islet experiments. 5 ml collagenase P solution at 0.375 mg/ml in HBSS was prepared for each animal and kept on ice. The animal was euthanized with CO2 and 3% isoflurane followed by cervical dislocation to ensure no discomfort. The animal was disinfected with 70% ethanol before making a V-incision at the genital area and moving the bowel to clearly expose the bile duct. The ampulla on the surface of duodenum was clamped with a hemostat. The pancreas was then distended (inflated) through the bile duct with a 30-gauge needle with 5 ml syringe containing 2 ml of cold collagenase solution, starting at the gall bladder. The pancreas was then removed and placed in a 15 ml tube containing 2 ml of collagenase solution in a 37° C. water bath for 12 minutes. Then, 10 ml of cold HBSS was added to stop the digestion when 80% of the pancreas has disintegrated. […]

[2] = test system: islets; experiment: Islet mitochondrial hyperpolarization by Rhodamine 123 fluorescence
Procedure: The effects of hypoxia and intermittent hypoxia preconditioning on calcium were paralleled by changes in insulin secretion and mitochondrial potential, as measured by off-chip insulin ELISA and Rhodamine 123 fluorescence, respectively. Insulin fractions were collected at 1 minute intervals during flow, with a stop-flow incubation period during the glucose exposure, as shown in FIG. 10A. The hypoxic pulse rendered insulin response down to basal levels (even drifting below baseline) while preconditioning improved insulin to 85% of normoxia while exposed to hypoxia. However, all insulin samples were collected in the same manner to account for this issue. Mitochondria hyperpolarization, monitored with Rhodamine uptake and self-quenching, was improved with IH preconditioning compared to hypoxia exposure alone. […] Islets were incubated in 100 μM diazoxide for 10 minutes and washed in Krebs buffer for 10 minutes prior to hypoxia and glucose stimulation. […] Both mitochondrial hyperpolarization and insulin secretion were improved with diazoxide compared to IH+5HD, as shown in FIG. 10B. […] All fluids perfused through the MIIH device were prepared in Krebs Ringer bicarbonate buffer: 129 mM NaCl, 5 mM NaHCO3, 4.7 mM KCl, 1.2 mM KH2PO4, 1 mM CaCl2.2H2O, 1.2 mM MgSO4.7H2O, 10 mM HEPES pH 7.35-7.40. […] FURA was excited at 340 and 380 nm and measured at 510 nm while Rho123 was excited at 495 nm and measured at 530 nm FURA measurements were expressed as a ratio of 340 nm over 380 nm intensities. […] The data was then normalized against the standard normoxic pulse to minimize variation between experiments and the results were expressed as “FURA Ratio %”. Rho123 measurement and the associated hyperpolarization drop were also analyzed similarly by normalizing against a normoxic standard. The insulin ELISA timepoints, measured in ng/mL, was expressed as an index of the maximum value over the baseline average to account for the stop flow during glucose/hypoxic incubation and also varying number of islets in the experiments. […]

[3] = test system: islets; experiment: Islet insulin secretion, off-chip insulin ELISA
Procedure: The effects of hypoxia and intermittent hypoxia preconditioning on calcium were paralleled by changes in insulin secretion and mitochondrial potential, as measured by off-chip insulin ELISA and Rhodamine 123 fluorescence, respectively. Insulin fractions were collected at 1 minute intervals during flow, with a stop-flow incubation period during the glucose exposure, as shown in FIG. 10A. The hypoxic pulse rendered insulin response down to basal levels (even drifting below baseline) while preconditioning improved insulin to 85% of normoxia while exposed to hypoxia. However, all insulin samples were collected in the same manner to account for this issue. Mitochondria hyperpolarization, monitored with Rhodamine uptake and self-quenching, was improved with IH preconditioning compared to hypoxia exposure alone. […] Islets were incubated in 100 μM diazoxide for 10 minutes and washed in Krebs buffer for 10 minutes prior to hypoxia and glucose stimulation. […] Both mitochondrial hyperpolarization and insulin secretion were improved with diazoxide compared to IH+5HD, as shown in FIG. 10B. […] Glucose and Krebs buffer flow were only introduced while washing or stimulating the islets, and flow was stopped at all other times. […] The plates were read in a Biotek Synergy 2 plate reader. […] FURA was excited at 340 and 380 nm and measured at 510 nm while Rho123 was excited at 495 nm and measured at 530 nm FURA measurements were expressed as a ratio of 340 nm over 380 nm intensities. […] The data was then normalized against the standard normoxic pulse to minimize variation between experiments and the results were expressed as “FURA Ratio %”. Rho123 measurement and the associated hyperpolarization drop were also analyzed similarly by normalizing against a normoxic standard. The insulin ELISA timepoints, measured in ng/mL, was expressed as an index of the maximum value over the baseline average to account for the stop flow during glucose/hypoxic incubation and also varying number of islets in the experiments. […]

[4] = 100 μM diazoxide, not statistically significant
[5] = 100 μM diazoxide, 5% hypoxia, FIG. 10B

SMILES | preconditioning of islets under hypoxia (FURA profile) ([1]; IH (1 m/1 m cycle, 60 min total) and 100 μM 5HD simultaneously) | mitochondrial hyperpolarization with 5HD ([2]; IH plus 5HD) | preconditioned insulin response with 5HD ([3]; IH plus 5HD) | preconditioning of islets under hypoxia (glucose calcium response) ([1]; 100 μM diazoxide 10 minutes, washed in Krebs buffer 10 minutes prior to 5% hypoxia and glucose stimulation) | calcium response compared to IH preconditioning alone [1, 4] | mitochondrial hyperpolarization compared to IH+5HD [2, 5] | mitochondrial hyperpolarization compared to IH preconditioning alone [2, 4] | insulin secretion compared to IH+5HD [3, 5] | insulin response compared to IH preconditioning alone [3, 4]
CCCCCC(O)CCCC(=O)O (stereo not drawn) [5HD, 5-hydroxydecanoic acid] | failed to be preconditioned | decreased mitochondrial hyperpolarization | decoupling of preconditioned insulin response |  |  |  |  |  | 
CC1=NS(=O)(=O)c2cc(Cl)ccc2N1 [diazoxide] |  |  |  | provided preconditioning benefits | higher average | improved | less than that of IH preconditioning alone | improved | higher average
